From patent US11339144B2 (Navitor Pharmaceuticals, Inc., priority 2017, dated 2022) come the findings set out here.

Like-named read-outs stand apart in the source and are kept apart here.

Experiment [1] deals with HA-GST-Rheb (GTP-γ-S loaded) activating mTORC1 (Homo sapiens (Human), UniProt Q15382). Description: Rheb-dependent in vitro kinase assay (Rheb-IVK; LanthaScreen or Western readout). The experiment is classed as biochemical.
The next experiment has as its target Rheb (Homo sapiens (Human), UniProt Q15382). Nature of the experiment: Affinity Selection Mass Spectrometry (ASMS). The experiment is classed as binding. The settings on record: affinity (R3/R0) in Affinity Selection Mass Spectrometry assay. The method, boiled down:
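Human Rheb (60 μM) with GDP (180 μM) and each compound at 2 μM, protein-plus versus protein-minus, incubated 30 min at room temperature, then washed by 10 kDa ultrafiltration. Retained ligand was released with MeCN and detected by UPLC-Q-TOF MS.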

[2] abbreviates: Rheb-dependent in vitro kinase assay, read-out: IVK IC50.

Sequence of HA-GST-Rheb (GTP-γ-S loaded) activating mTORC1 (Q15382 1-181): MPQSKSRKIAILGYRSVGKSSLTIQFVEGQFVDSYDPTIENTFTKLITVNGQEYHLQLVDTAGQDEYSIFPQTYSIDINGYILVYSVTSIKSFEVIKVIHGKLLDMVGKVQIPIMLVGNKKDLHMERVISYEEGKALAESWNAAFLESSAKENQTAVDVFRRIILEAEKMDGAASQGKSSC
Sequence of Rheb (Q15382 1-169 limits assumed): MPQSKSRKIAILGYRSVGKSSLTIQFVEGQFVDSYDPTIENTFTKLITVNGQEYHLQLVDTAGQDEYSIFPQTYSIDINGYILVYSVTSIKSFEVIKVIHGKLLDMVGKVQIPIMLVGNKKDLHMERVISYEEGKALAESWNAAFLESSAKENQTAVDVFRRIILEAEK

With `CN1CCN(c2cccc(-c3nc4cc(Cl)c(Cl)cc4[nH]3)c2)CC1` [I-367], the IC50 in experiment [1] (setting [2]) was over 100 µM. The “ASMS (R3/R0)” value at Rheb is “B (an affinity (R3/R0) between 100% and 20%)”.

With `O=C(O)c1cc2c(Sc3cccc4cccnc34)cc(Cl)cc2[nH]1` [I-87, 6-chloro-4-(quinolin-8-ylthio)-1H-indole-2-carboxylic acid], the IC50 in experiment [1] (setting [2]) was in the range of 10 to 100 µM. In addition, on Rheb, the “ASMS (R3/R0)” value is “B (an affinity (R3/R0) between 100% and 20%)”.

For the molecule `O=C(O)Cn1ccc2c(Oc3cc(Cl)ccc3Cl)cc(Cl)cc21` [I-158, 2-(6-Chloro-4-(2,5-dichlorophenoxy)-1H-indol-1-yl)acetic acid], the IC50 in experiment [1] (setting [2]) lay in the range of 10 to 100 µM. The “ASMS (R3/R0)” value at Rheb is “B (an affinity (R3/R0) between 100% and 20%)”.

For the molecule `CN(C)C(=O)c1ccc(Cn2c(C(=O)O)cc3c(Br)cc(Sc4cccc(OC(F)(F)F)c4)cc32)cc1` [I-20, 4-bromo-1-(4-(dimethylcarbamoyl)benzyl)-6-(3-(trifluoromethoxy)phenylthio)-1H-indole-2-carboxylic acid], in experiment [1] (setting [2]), the IC50 was under 10 µM. Further, at Rheb, the “ASMS (R3/R0)” value was “A (an affinity (R3/R0)>100%)”.

For `Clc1ccc(Sc2cc(Cl)cc3[nH]c(-c4ccnc5[nH]ccc45)nc23)cc1` [I-326, 6-chloro-4-(4-chlorophenylthio)-2-(1H-pyrrolo[2,3-b]pyridin-4-yl)-1H-benzo[d]imidazole], the IC50 in experiment [1] (setting [2]) lay within 10 to 100 µM. Further, the “ASMS (R3/R0)” value on Rheb is “B (an affinity (R3/R0) between 100% and 20%)”.

On to `CN1CCC[C@@H]1CNC(=O)c1ccc(-c2nc3cc(Cl)c(Cl)cc3[nH]2)cc1` [I-341], for which the IC50 in experiment [1] (setting [2]) is over 100 µM. Also, the “ASMS (R3/R0)” value at Rheb is “B (an affinity (R3/R0) between 100% and 20%)”.

For `CC(C)(C)OC(=O)NCc1nc2cc(OCc3ccc(Cl)cc3)c(Cl)c(Cl)c2[nH]1` [I-350], the IC50 in experiment [1] (setting [2]) is over 100 µM. Besides, the “ASMS (R3/R0)” value on Rheb was “B (an affinity (R3/R0) between 100% and 20%)”.

Regarding `Clc1ccc(Cl)c(Oc2cccc3[nH]ccc23)c1` [I-251, 4-(2,5-Dichlorophenoxy)-1H-indole], the IC50 in experiment [1] (setting [2]) fell in the range of 10 to 100 µM. Moreover, on Rheb, the “ASMS (R3/R0)” value was “C (an affinity (R3/R0)<20%)”.

Turning to `O=C(O)c1cc2cc(SCc3ccc(Cl)cc3)c(Cl)cc2[nH]1` [I-85, 6-chloro-5-(4-chlorobenzylthio)-1H-indole-2-carboxylic acid], the IC50 in experiment [1] (setting [2]) lay in the range of 10 to 100 µM. For the same molecule, the “ASMS (R3/R0)” value at Rheb is “B (an affinity (R3/R0) between 100% and 20%)”.

Consider `O=C(O)c1cc2c(Sc3ccc(Cl)cc3Cl)cc(Cl)cc2n1Cc1ccc(-c2cccc(CO)c2)cc1` [I-72, 6-chloro-4-(2,4-dichlorophenylthio)-1-((3′-(hydroxymethyl)biphenyl-4-yl)methyl)-1H-indole-2-carboxylic acid], for which the IC50 in experiment [1] (setting [2]) is under 10 µM. For the same molecule, at Rheb, the “ASMS (R3/R0)” value was “B (an affinity (R3/R0) between 100% and 20%)”.

With `O=C(O)c1cc2c(Sc3cccc(OC(F)(F)F)c3)cc(Cl)cc2[nH]1` [I-126, 6-chloro-4-(3-(trifluoromethoxy)phenylthio)-1H-indole-2-carboxylic acid], the IC50 in experiment [1] (setting [2]) fell in the range of 10 to 100 µM. Besides, the “ASMS (R3/R0)” value at Rheb was “B (an affinity (R3/R0) between 100% and 20%)”.

As to `Cn1c(C(=O)O)cc2c(Sc3ccc(Cl)cc3)cc(Cl)cc21` [I-207, 6-chloro-4-(4-chlorophenylthio)-1-methyl-1H-indole-2-carboxylic acid], the half-maximal inhibitory concentration (IC50) in experiment [1] (setting [2]) is 10 to 100 µM. Further, the “ASMS (R3/R0)” value at Rheb is “B (an affinity (R3/R0) between 100% and 20%)”.

As for `O=C(O)c1nc2cc(OCc3ccc(Cl)cc3)c(Cl)cc2[nH]1` [I-343, 6-chloro-5-(4-chlorobenzyloxy)-1H-benzo[d]imidazole-2-carboxylic acid], the IC50 in experiment [1] (setting [2]) was in the range of 10 to 100 µM. In addition, at Rheb, the “ASMS (R3/R0)” value is “A (an affinity (R3/R0)>100%)”.

For `O=C(O)c1cc2c(Sc3ccc(Oc4ccccc4)cc3)cc(Cl)cc2[nH]1` [I-118, 6-chloro-4-(4-phenoxyphenylthio)-1H-indole-2-carboxylic acid], the IC50 in experiment [1] (setting [2]) was under 10 µM. Further, at Rheb, the “ASMS (R3/R0)” value was “B (an affinity (R3/R0) between 100% and 20%)”.

With `CN1CCC(CCNC(=O)c2cc3c(Br)cc(Sc4ccc(Cl)c(Cl)c4)cc3[nH]2)CC1` [I-97], the IC50 in experiment [1] (setting [2]) was over 100 µM. Also, on Rheb, the “ASMS (R3/R0)” value is “B (an affinity (R3/R0) between 100% and 20%)”.

Take `CN1CCC(N(C)C(=O)c2ccc(Cn3c(C(=O)O)cc4c(Br)cc(Oc5ccccc5)cc43)cc2)C1` (stereo not drawn) [I-46]: in experiment [1] (setting [2]), the IC50 is over 3 µM. Moreover, on Rheb, the “ASMS (R3/R0)” value was “C (an affinity (R3/R0)<20%)”.

Consider `OCc1cc2c(Oc3ccccc3)c(Cl)ccc2[nH]1` [I-293, (5-chloro-4-phenoxy-1H-indol-2-yl)methanol], for which the IC50 is about 83.8 µM in experiment [1] (LanthaScreen variation, Terbium labeled T46p4E-BP1 specific antibody, read-out: IC50 in the Rheb-IVK) and 100 to 300 µM in experiment [1] (setting [2]). In addition, the “inhibition of mTORC1 activity in the Rheb-IVK” value in experiment [1] (Western blot variation, anti 4E-BP1 and anti T37/46p4E-BP1) is listed as “capable of inhibiting mTORC1 activity”. Also, on Rheb, the “ASMS (R3/R0)” value is “C (an affinity (R3/R0)<20%)”.

On to `COc1cccc(CCNC(=O)c2cc3c(Sc4ccc(Cl)cc4)cc(Cl)cc3[nH]2)c1` [I-144], for which the IC50 in experiment [1] (setting [2]) is over 100 µM. The “ASMS (R3/R0)” value at Rheb is “B (an affinity (R3/R0) between 100% and 20%)”.

`CC(C)(C)OC(=O)N1CCN(C(=O)c2ccc(Cn3c(C(=O)O)cc4c(Br)cc(Oc5ccccc5)cc43)cc2)CC1` [I-62]: the IC50 in experiment [1] (setting [2]) is over 100 µM. Moreover, the “ASMS (R3/R0)” value on Rheb was “B (an affinity (R3/R0) between 100% and 20%)”.

Regarding `CN1CCN(C(=O)c2ccc(-c3nc4cc(Cl)c(Cl)cc4[nH]3)cc2)CC1` [I-349], in experiment [1] (setting [2]), the IC50 was over 100 µM. Besides, the “ASMS (R3/R0)” value at Rheb is “B (an affinity (R3/R0) between 100% and 20%)”.

In the case of `N[C@@H]1CCCC[C@@H]1COc1c(Cl)c(Cl)cc2[nH]c(CO)nc12` (racemic) [I-376, (4-(((+,−)-cis-2-aminocyclohexyl)methoxy)-5,6-dichloro-1H-benzo[d]imidazol-2-yl)methanol], the IC50 in experiment [1] (setting [2]) was 100 to 300 µM. At Rheb, the “ASMS (R3/R0)” value is on record as “C (an affinity (R3/R0)<20%)”.

Consider `CN1CCCN(c2ccc(NC(=O)c3cc4c(Sc5ccc(Cl)cc5Cl)cc(Cl)cc4[nH]3)cc2F)CC1` [I-93, 6-chloro-4-(2,4-dichlorophenylthio)-N-(3-fluoro-4-(4-methyl-1,4-diazepan-1-yl)phenyl)-1H-indole-2-carboxamide], for which, in experiment [1] (setting [2]), the IC50 is under 10 µM. Moreover, the “ASMS (R3/R0)” value at Rheb is recorded as “A (an affinity (R3/R0)>100%)”.

In the case of `Cn1c(CO)nc2cc(OCc3ccccc3)c(Cl)cc21` [I-425, (5-(benzyloxy)-6-chloro-1-methyl-1H-benzo[d]imidazol-2-yl)methanol], the IC50 in experiment [1] (setting [2]) is over 3 µM. The “ASMS (R3/R0)” value on Rheb is “C (an affinity (R3/R0)<20%)”.

With `Clc1cccc(Oc2cc(Cl)cc3[nH]ccc23)c1` [I-208, 6-chloro-4-(3-chlorophenoxy)-1H-indole], the IC50 in experiment [1] (setting [2]) was in the range of 10 to 100 µM. Further, at Rheb, the “ASMS (R3/R0)” value was “B (an affinity (R3/R0) between 100% and 20%)”.

As to `OC1CC(COc2c(Cl)c(Cl)cc3c2nc2n3COC2)CC1O` (stereo not drawn) [I-373, 4-((6,7-dichloro-1,3-dihydrobenzo[d]oxazolo[3,4-a]imidazol-5-yloxy)methyl)cyclopentane-1,2-diol], in experiment [1] (setting [2]), the IC50 is 10 to 100 µM. The “ASMS (R3/R0)” value at Rheb is given as “C (an affinity (R3/R0)<20%)”.

With `CC(C)(C)OC(=O)c1ccc(Cn2c(C(=O)O)cc3c(Cl)cc(Sc4ccc(Cl)c(Cl)c4)cc32)cc1` [I-95, 1-(4-(tert-butoxycarbonyl)benzyl)-4-chloro-6-(3,4-dichlorophenylthio)-1H-indole-2-carboxylic acid], the IC50 in experiment [1] (setting [2]) was in the range of 10 to 100 µM. Moreover, on Rheb, the “ASMS (R3/R0)” value is “B (an affinity (R3/R0) between 100% and 20%)”.

For the molecule `CN(C)C(=O)c1ccc(Cn2c(C(=O)O)cc3cc(-c4ccccc4)c(Sc4ccc(Cl)c(Cl)c4)cc32)cc1` [I-2], in experiment [1] (setting [2]), the IC50 is under 10 µM. The “ASMS (R3/R0)” value at Rheb is “B (an affinity (R3/R0) between 100% and 20%)”.

With `CN(C)C(=O)c1ccc(Cn2c(C(=O)O)cc3c(Cl)cc(Sc4ccc(Cl)c(Cl)c4)cc32)cc1` [I-75, 4-chloro-6-(3,4-dichlorophenylthio)-1-(4-(dimethylcarbamoyl)benzyl)-1H-indole-2-carboxylic acid], the IC50 in experiment [1] (setting [2]) was under 10 µM. The “ASMS (R3/R0)” value at Rheb was “B (an affinity (R3/R0) between 100% and 20%)”.

In the case of `O=C(O)c1cc2c(Sc3ccc(Cl)c(Cl)c3)cc(Sc3ccc(Cl)c(Cl)c3)cc2[nH]1` [I-88, 4,6-bis(3,4-dichlorophenylthio)-1H-indole-2-carboxylic acid], the IC50 in experiment [1] (setting [2]) is under 10 µM. The “ASMS (R3/R0)” value at Rheb is “B (an affinity (R3/R0) between 100% and 20%)”.

For `O=C(O)c1cc2c(-c3cc(Cl)cc(Cl)c3)cc(Cl)cc2[nH]1` [I-49, 6-chloro-4-(3,5-dichlorophenyl)-1H-indole-2-carboxylic acid], in experiment [1] (setting [2]), the IC50 was under 10 µM. Besides, the “ASMS (R3/R0)” value at Rheb was “B (an affinity (R3/R0) between 100% and 20%)”.

On to `OCc1nc2c(OCC3CCCC(O)C3)c(Cl)c(Cl)cc2[nH]1` (stereo not drawn) [I-396, 3-((5,6-dichloro-2-(hydroxymethyl)-1H-benzo[d]imidazol-4-yloxy)methyl)cyclohexanol], for which the IC50 in experiment [1] (setting [2]) fell in the range of 10 to 100 µM. Moreover, the “ASMS (R3/R0)” value on Rheb is reported as “C (an affinity (R3/R0)<20%)”.

As to `O=C(O)c1cc2c(Sc3ccc(Cl)cc3Cl)cc(Cl)c(Cl)c2[nH]1` [I-45, 6,7-dichloro-4-(2,4-dichlorophenylthio)-1H-indole-2-carboxylic acid], the IC50 in experiment [1] (setting [2]) is under 10 µM. Also, the “ASMS (R3/R0)” value at Rheb is listed as “A (an affinity (R3/R0)>100%)”.

As to `CN(C)C(=O)c1ccc(Cn2c(C(=O)O)cc3c4ccccc4c(Sc4ccc(Cl)c(Cl)c4)cc32)cc1` [I-9, 5-(3,4-dichlorophenylthio)-3-(4-(dimethylcarbamoyl)benzyl)-3H-benzo[e]indole-2-carboxylic acid], the IC50 in experiment [1] (setting [2]) is under 10 µM. On Rheb, the “ASMS (R3/R0)” value is on record as “A (an affinity (R3/R0)>100%)”.

For the molecule `Cn1ccc2c(OC3CCNCC3)cccc21` [I-295], the IC50 in experiment [1] (setting [2]) was over 100 µM. For the same molecule, the “ASMS (R3/R0)” value at Rheb is “C (an affinity (R3/R0)<20%)”.

Regarding `C=Cc1nc2c(OCC3CCCCC3)c(Cl)c(Cl)cc2[nH]1` [I-345], in experiment [1] (setting [2]), the IC50 is over 100 µM. For the same molecule, the “ASMS (R3/R0)” value on Rheb is “B (an affinity (R3/R0) between 100% and 20%)”.
